Test results: PMC5218480 (PLoS ONE, 2017)

Test system: MV-4-11 cells
Assay: Gene expression microarray analysis (Affymetrix PrimeView) and GSEA
Format: cell-based, human
Parameters: RFU PODN (11730768_x_at) / Fold change /veh PODN (11730768_x_at) / RFU LINC00158 (11744669_a_at) / Fold change /veh LINC00158 (11744669_a_at) / RFU DUSP10 (11751237_a_at) / Fold change /veh DUSP10 (11751237_a_at) / RFU ID3 (11757404_x_at) / Fold change /veh ID3 (11757404_x_at) / RFU PLEKHG5 (11737974_s_at) / Fold change /veh PLEKHG5 (11737974_s_at) / RFU LRRC4B (11730491_at) / Fold change /veh LRRC4B (11730491_at) / RFU GIMAP4 (11747438_a_at) / Fold change /veh GIMAP4 (11747438_a_at) / RFU KRT8 (11758183_x_at) / Fold change /veh KRT8 (11758183_x_at) / RFU CNN1 (11734310_a_at) / Fold change /veh CNN1 (11734310_a_at) / RFU VPS37D (11726825_at) / Fold change /veh VPS37D (11726825_at) / RFU C10orf10 (11716522_x_at) / Fold change /veh C10orf10 (11716522_x_at) / RFU KIR2DL2 /// KIR2DL4 /// KIR2DL5A /// KIR2DL5B /// KIR2DS1 /// KIR2DS2 /// KIR2DS3 /// KIR2DS4 /// KIR3DL3 /// KIR3DL3 /// KIR3DS1 (11738374_at) / Fold change /veh KIR2DL2 /// KIR2DL4 /// KIR2DL5A /// KIR2DL5B /// KIR2DS1 /// KIR2DS2 /// KIR2DS3 /// KIR2DS4 /// KIR3DL3 /// KIR3DL3 /// KIR3DS1 (11738374_at) / RFU C1QL1 (11718748_at) / Fold change /veh C1QL1 (11718748_at) / RFU TMPRSS4 (11747572_a_at) / Fold change /veh TMPRSS4 (11747572_a_at) / RFU HAMP (11756126_x_at) / Fold change /veh HAMP (11756126_x_at) / RFU RNFT2 (11725882_a_at) / Fold change /veh RNFT2 (11725882_a_at) / RFU NR4A2 (11747474_a_at) / Fold change /veh NR4A2 (11747474_a_at) / RFU ABCC12 (11746883_a_at) / Fold change /veh ABCC12 (11746883_a_at) / RFU TMEM136 (11760407_x_at) / Fold change /veh TMEM136 (11760407_x_at) / RFU CLDN22 /// WWC2 (11732394_at) / Fold change /veh CLDN22 /// WWC2 (11732394_at) / RFU HLA-DPB1 (11760878_x_at) / Fold change /veh HLA-DPB1 (11760878_x_at) / RFU SPINT1 (11716480_a_at) / Fold change /veh SPINT1 (11716480_a_at) / RFU GAP43 (11754022_s_at) / Fold change /veh GAP43 (11754022_s_at) / RFU A4GNT (11735810_at) / Fold change /veh A4GNT (11735810_at) / RFU PRB3 (11715151_x_at) / Fold change /veh PRB3 (11715151_x_at) / RFU TUBB4B (11761932_at) / Fold change /veh TUBB4B (11761932_at) / RFU CAPN14 (11732068_a_at) / Fold change /veh CAPN14 (11732068_a_at) / RFU TMCC2 (11721928_a_at) / Fold change /veh TMCC2 (11721928_a_at) / RFU IRGQ (11745062_a_at) / Fold change /veh IRGQ (11745062_a_at) / RFU FAM174B (11720279_a_at) / Fold change /veh FAM174B (11720279_a_at) / RFU TMPRSS4 (11748680_a_at) / Fold change /veh TMPRSS4 (11748680_a_at) / RFU FAM212B (11763350_a_at) / Fold change /veh FAM212B (11763350_a_at) / RFU PLEKHG5 (11743358_a_at) / Fold change /veh PLEKHG5 (11743358_a_at) / RFU ZSCAN30 (11745921_a_at) / Fold change /veh ZSCAN30 (11745921_a_at) / RFU CMKLR1 (11741424_a_at) / Fold change /veh CMKLR1 (11741424_a_at) / RFU LOC101060620 /// MAPK8IP1 (11723275_at) / Fold change /veh LOC101060620 /// MAPK8IP1 (11723275_at) / RFU SPTSSB (11747773_x_at) / Fold change /veh SPTSSB (11747773_x_at) / RFU PRSS12 (11739890_at) / Fold change /veh PRSS12 (11739890_at) / RFU BIN1 (11741810_x_at) / Fold change /veh BIN1 (11741810_x_at) / RFU WNT11 (11732464_a_at) / Fold change /veh WNT11 (11732464_a_at) / RFU C10orf10 (11716521_a_at) / Fold change /veh C10orf10 (11716521_a_at) / RFU C5orf56 (11738089_at) / Fold change /veh C5orf56 (11738089_at) / RFU CYB561 (11721691_x_at) / Fold change /veh CYB561 (11721691_x_at) / RFU ANKRD19P (11752326_a_at) / Fold change /veh ANKRD19P (11752326_a_at) / RFU OR2T12 /// OR2T33 /// OR2T8 (11738714_s_at) / Fold change /veh OR2T12 /// OR2T33 /// OR2T8 (11738714_s_at) / RFU VCAN (11748164_a_at) / Fold change /veh VCAN (11748164_a_at) / RFU JSRP1 (11732532_at) / Fold change /veh JSRP1 (11732532_at) / RFU KRTAP10-11 (11738290_x_at) / Fold change /veh KRTAP10-11 (11738290_x_at) / RFU MYO3A (11730013_a_at) / Fold change /veh MYO3A (11730013_a_at) / RFU EBF3 (11725865_a_at) / Fold change /veh EBF3 (11725865_a_at) / RFU CAMK2N1 (11719241_x_at) / Fold change /veh CAMK2N1 (11719241_x_at) / RFU C5orf56 (11738088_a_at) / Fold change /veh C5orf56 (11738088_a_at) / RFU OLFML3 (11715873_a_at) / Fold change /veh OLFML3 (11715873_a_at) / RFU LOC100653217 /// NTM (11731650_a_at) / Fold change /veh LOC100653217 /// NTM (11731650_a_at) / RFU MAPK11 (11762145_a_at) / Fold change /veh MAPK11 (11762145_a_at) / RFU FIZ1 (11724087_x_at) / Fold change /veh FIZ1 (11724087_x_at) / RFU OASL (11726364_x_at) / Fold change /veh OASL (11726364_x_at) / RFU SOX15 (11748057_x_at) / Fold change /veh SOX15 (11748057_x_at) / RFU CD79A (11719716_a_at) / Fold change /veh CD79A (11719716_a_at) / RFU HIST1H1D (11736915_at) / Fold change /veh HIST1H1D (11736915_at) / RFU CASKIN2 (11723855_a_at) / Fold change /veh CASKIN2 (11723855_a_at) / RFU LOC730098 (11760151_x_at) / Fold change /veh LOC730098 (11760151_x_at) / RFU OR4N2 (11742367_at) / Fold change /veh OR4N2 (11742367_at) / RFU PRRT2 (11749266_a_at) / Fold change /veh PRRT2 (11749266_a_at) / RFU SNX32 (11753110_a_at) / Fold change /veh SNX32 (11753110_a_at) / RFU CDHR5 (11726645_a_at) / Fold change /veh CDHR5 (11726645_a_at) / RFU RCAN1 (11760418_a_at) / Fold change /veh RCAN1 (11760418_a_at) / RFU FAM167A (11723789_a_at) / Fold change /veh FAM167A (11723789_a_at) / RFU FAM26E (11764081_at) / Fold change /veh FAM26E (11764081_at) / RFU ISYNA1 (11749810_s_at) / Fold change /veh ISYNA1 (11749810_s_at) / RFU ACY1 (11761880_at) / Fold change /veh ACY1 (11761880_at) / RFU 11764098_at / Fold change /veh 11764098_at / RFU SAMD14 (11745864_x_at) / Fold change /veh SAMD14 (11745864_x_at) / RFU NPB (11741838_a_at) / Fold change /veh NPB (11741838_a_at) / RFU TMPRSS6 (11731388_a_at) / Fold change /veh TMPRSS6 (11731388_a_at) / RFU KRTAP10-2 (11738614_at) / Fold change /veh KRTAP10-2 (11738614_at) / RFU ARHGAP8 /// PRR5-ARHGAP8 (11727945_x_at) / Fold change /veh ARHGAP8 /// PRR5-ARHGAP8 (11727945_x_at) / RFU KRTAP5-7 /// NADSYN1 (11734609_at) / Fold change /veh KRTAP5-7 /// NADSYN1 (11734609_at) / RFU RASL12 (11751679_a_at) / Fold change /veh RASL12 (11751679_a_at) / RFU CDKN2B (11736163_a_at) / Fold change /veh CDKN2B (11736163_a_at) / RFU PRF1 (11729649_at) / Fold change /veh PRF1 (11729649_at) / RFU, ZNF638 /// ZNF638-IT1 / Fold change vs veh, ZNF638 /// ZNF638-IT1 / RFU, PANK3 / Fold change vs veh, PANK3 / RFU, SH3YL1 / Fold change vs veh, SH3YL1 / RFU, ZEB2 / Fold change vs veh, ZEB2 / RFU, NRIP1 / Fold change vs veh, NRIP1 / RFU, PTTG1IP / Fold change vs veh, PTTG1IP / RFU, CAPN2 / Fold change vs veh, CAPN2 / RFU, MED14 / Fold change vs veh, MED14 / RFU, SNORA58 / Fold change vs veh, SNORA58 / RFU, C1orf63 / Fold change vs veh, C1orf63 / RFU, LRRFIP1 / Fold change vs veh, LRRFIP1 / RFU, NDUFAF7 / Fold change vs veh, NDUFAF7 / RFU, SLC12A2 / Fold change vs veh, SLC12A2 / RFU, IBTK / Fold change vs veh, IBTK / RFU, ESF1 / Fold change vs veh, ESF1 / Fold change vs veh, TMEM50B / RFU, TAOK1 / Fold change vs veh, TAOK1 / RFU, ACBD3 / Fold change vs veh, ACBD3 / RFU, TMA16 / Fold change vs veh, TMA16 / RFU, RWDD3 / Fold change vs veh, RWDD3 / RFU, BCAT1 / Fold change vs veh, BCAT1 / RFU, EDEM3 / Fold change vs veh, EDEM3 / RFU, TMEM33 / Fold change vs veh, TMEM33 / RFU, WDR75 / Fold change vs veh, WDR75 / RFU, AHCTF1 / Fold change vs veh, AHCTF1 / RFU, TFRC / Fold change vs veh, TFRC / RFU, ZDHHC17 / Fold change vs veh, ZDHHC17 / RFU, NOM1 / Fold change vs veh, NOM1 / RFU, ARL8B / Fold change vs veh, ARL8B / RFU, ZBTB11 / Fold change vs veh, ZBTB11 / RFU, TAMM41 / Fold change vs veh, TAMM41 / RFU, KIAA1704 /// LOC100996395 / Fold change vs veh, KIAA1704 /// LOC100996395 / RFU, ING1 / Fold change vs veh, ING1 / RFU, TRMT61B / Fold change vs veh, TRMT61B / RFU, FUBP3 / Fold change vs veh, FUBP3 / RFU, TP53 / Fold change vs veh, TP53 / RFU, TNKS2 / Fold change vs veh, TNKS2 / RFU, ZFP14 / Fold change vs veh, ZFP14 / RFU, ACTR2 / Fold change vs veh, ACTR2 / RFU, PPP3R1 / Fold change vs veh, PPP3R1 / RFU, PIK3R1 / Fold change vs veh, PIK3R1 / RFU, HNRNPA1 / Fold change vs veh, HNRNPA1 / RFU, RNF170 / Fold change vs veh, RNF170 / RFU, ZNF28 / Fold change vs veh, ZNF28 / RFU, RNGTT / Fold change vs veh, RNGTT / RFU, OGT / Fold change vs veh, OGT / RFU, BRD1 / Fold change vs veh, BRD1 / RFU, MARS / Fold change vs veh, MARS / RFU, ZNF655 / Fold change vs veh, ZNF655 / RFU, FAHD1 / Fold change vs veh, FAHD1 / RFU, BDP1 / Fold change vs veh, BDP1 / RFU, LRRCC1 / Fold change vs veh, LRRCC1 / RFU, ARID1A / Fold change vs veh, ARID1A / RFU, ZNF146 / Fold change vs veh, ZNF146 / RFU, ZNF330 / Fold change vs veh, ZNF330 / RFU, GPN3 / Fold change vs veh, GPN3 / RFU, C9orf123 / Fold change vs veh, C9orf123 / RFU, N4BP2L2 / Fold change vs veh, N4BP2L2 / RFU, ARFIP1 / Fold change vs veh, ARFIP1 / RFU, FAM179B / Fold change vs veh, FAM179B / RFU, BCL10 / Fold change vs veh, BCL10 / RFU, UHRF1BP1L / Fold change vs veh, UHRF1BP1L / RFU, BET1 / Fold change vs veh, BET1 / RFU, CNOT2 / Fold change vs veh, CNOT2 / RFU, ZNF268 / Fold change vs veh, ZNF268 / Fold change vs veh, ZNF507 / RFU, DGCR2 / Fold change vs veh, DGCR2 / RFU, WDSUB1 / Fold change vs veh, WDSUB1 / Fold change vs veh, HSP90B1 /// MIR3652 / RFU, ADSS / Fold change vs veh, ADSS / RFU, GK / Fold change vs veh, GK / RFU, ZNF148 / Fold change vs veh, ZNF148 / RFU, TAF9 / Fold change vs veh, TAF9 / RFU, SLC1A5 / Fold change vs veh, SLC1A5 / RFU, SLMO2 / Fold change vs veh, SLMO2 / RFU, ABCC4 / Fold change vs veh, ABCC4 / RFU, LOC101060439 /// RAP1B / Fold change vs veh, LOC101060439 /// RAP1B / RFU, RFX7 / Fold change vs veh, RFX7 / RFU, GTPBP10 / Fold change vs veh, GTPBP10 / RFU, CNEP1R1 / Fold change vs veh, CNEP1R1 / RFU, BIVM-ERCC5 /// ERCC5 / Fold change vs veh, BIVM-ERCC5 /// ERCC5 / RFU, ILF3 / Fold change vs veh, ILF3 / RFU 11762660_at / Fold change /veh 11762660_at / RFU VCAN (11757783_s_at) / Fold change /veh VCAN (11757783_s_at) / RFU DDX43 (11728927_at) / Fold change /veh DDX43 (11728927_at) / RFU KRT8 (11758188_x_at) / Fold change /veh KRT8 (11758188_x_at) / RFU NKD1 (11759106_at) / Fold change /veh NKD1 (11759106_at) / RFU SRD5A1 (11742802_a_at) / Fold change /veh SRD5A1 (11742802_a_at) / RFU TPSAB1 /// TPSB2 (11721975_s_at) / Fold change /veh TPSAB1 /// TPSB2 (11721975_s_at) / RFU GSTM3 (11746129_a_at) / Fold change /veh GSTM3 (11746129_a_at) / RFU IL23R (11737362_x_at) / Fold change /veh IL23R (11737362_x_at) / RFU TMEM51 (11727254_a_at) / Fold change /veh TMEM51 (11727254_a_at) / RFU PIWIL2 (11732686_x_at) / Fold change /veh PIWIL2 (11732686_x_at) / RFU ORM1 (11744905_x_at) / Fold change /veh ORM1 (11744905_x_at) / RFU CCDC152 (11743942_at) / Fold change /veh CCDC152 (11743942_at) / RFU ECM1 (11717891_a_at) / Fold change /veh ECM1 (11717891_a_at) / RFU IL23R (11748794_a_at) / Fold change /veh IL23R (11748794_a_at) / RFU TNFAIP8L3 (11732012_x_at) / Fold change /veh TNFAIP8L3 (11732012_x_at) / RFU MBOAT4 (11741988_at) / Fold change /veh MBOAT4 (11741988_at) / RFU 11764193_at / Fold change /veh 11764193_at / RFU TMEM53 (11763286_at) / Fold change /veh TMEM53 (11763286_at) / RFU MAGEB2 (11727129_at) / Fold change /veh MAGEB2 (11727129_at) / RFU TMEM200A (11744735_a_at) / Fold change /veh TMEM200A (11744735_a_at) / RFU CCDC152 (11751479_a_at) / Fold change /veh CCDC152 (11751479_a_at) / RFU FAM211A (11726209_a_at) / Fold change /veh FAM211A (11726209_a_at) / RFU RGS16 (11746705_a_at) / Fold change /veh RGS16 (11746705_a_at) / RFU VCAN (11755009_s_at) / Fold change /veh VCAN (11755009_s_at) / RFU RHOB (11743442_s_at) / Fold change /veh RHOB (11743442_s_at) / RFU RGS16 (11720943_a_at) / Fold change /veh RGS16 (11720943_a_at) / RFU RGS16 (11720944_at) / Fold change /veh RGS16 (11720944_at) / RFU, VPS4B / Fold change vs veh, VPS4B / RFU, CREB1 / Fold change vs veh, CREB1 / RFU, DNAJC13 / Fold change vs veh, DNAJC13 / RFU, GNAQ / Fold change vs veh, GNAQ / RFU, CDK5R1 / Fold change vs veh, CDK5R1 / RFU, ZRANB3 / Fold change vs veh, ZRANB3 / RFU, CUL4A / Fold change vs veh, CUL4A / RFU, CCNY / Fold change vs veh, CCNY / RFU, UFL1 / Fold change vs veh, UFL1 / RFU, COG3 / Fold change vs veh, COG3 / RFU, DIAPH2 / Fold change vs veh, DIAPH2 / RFU, SKA2 / Fold change vs veh, SKA2 / RFU, AFF3 / Fold change vs veh, AFF3 / RFU, LMF1 / Fold change vs veh, LMF1 / RFU, IPO11 / Fold change vs veh, IPO11 / RFU, DFFB / Fold change vs veh, DFFB / RFU, FOXP1 / Fold change vs veh, FOXP1 / RFU, CARD8 / Fold change vs veh, CARD8 / RFU, STRN3 / Fold change vs veh, STRN3 / RFU, ADK / Fold change vs veh, ADK / RFU, RASSF2 / Fold change vs veh, RASSF2 / RFU, WIPF1 / Fold change vs veh, WIPF1 / RFU, LARP1B / Fold change vs veh, LARP1B / RFU, RASA1 / Fold change vs veh, RASA1 / RFU, RB1 / Fold change vs veh, RB1 / RFU, PPFIA1 / Fold change vs veh, PPFIA1 / RFU, MAT2A / Fold change vs veh, MAT2A / RFU, CCT5 / Fold change vs veh, CCT5 / RFU, WDR92 / Fold change vs veh, WDR92 / RFU, CUX1 / Fold change vs veh, CUX1 / RFU, TTC7A / Fold change vs veh, TTC7A / RFU, TMEM135 / Fold change vs veh, TMEM135 / RFU, DEPTOR / Fold change vs veh, DEPTOR / RFU, CPM / Fold change vs veh, CPM / RFU, DNAJB6 / Fold change vs veh, DNAJB6 / RFU, CACNA2D3 / Fold change vs veh, CACNA2D3 / RFU, DTX4 / Fold change vs veh, DTX4 / RFU, TFCP2 / Fold change vs veh, TFCP2 / RFU, GMCL1 /// GMCL1P1 / Fold change vs veh, GMCL1 /// GMCL1P1 / RFU, AEBP2 / Fold change vs veh, AEBP2 / RFU, SNHG1 /// SNORD22 /// SNORD25 /// SNORD26 /// SNORD27 /// SNORD28 /// SNORD29 /// SNORD31 / Fold change vs veh, SNHG1 /// SNORD22 /// SNORD25 /// SNORD26 /// SNORD27 /// SNORD28 /// SNORD29 /// SNORD31 / Fold change (Aza/veh), C12orf56 (ProbeSet 11735607_a_at) / Fold change (ACY-1035/veh), C12orf56 (ProbeSet 11735607_a_at) / Fold change (Aza/veh), FGFR1OP (ProbeSet 11751329_s_at) / Fold change (ACY-1035/veh), FGFR1OP (ProbeSet 11751329_s_at) / Fold change (Aza/veh), VPS36 (ProbeSet 11739960_a_at) / Fold change (ACY-1035/veh), VPS36 (ProbeSet 11739960_a_at) / RFU SYPL1 (11715823_x_at) / Fold change /veh SYPL1 (11715823_x_at) / RFU IGFBP7 (11715501_s_at) / Fold change /veh IGFBP7 (11715501_s_at) / RFU REEP3 (11722064_at) / Fold change /veh REEP3 (11722064_at) / RFU IGLL1 (11728026_x_at) / Fold change /veh IGLL1 (11728026_x_at): dose or concentration left out as unconfirmed
Conditions: ProbeSet 11719493_s_at; LIST B

`Nc1ccc(-c2cccs2)cc1NC(=O)c1ccc2c(c1)cc(C1CC1)n2CCN1CCOCC1` [ACY-1035] was tested, and the “Fold change vs veh, TAF9” value was 0.84.
